Results taken from patent US20180311191A1, “NEW COMBINATION THERAPIES FOR TREATING NEUROLOGICAL DAMAGE” (UNIVERSITAT AUTONOMA DE BARCELONA, priority 2015, published 2018).
Where two headings read alike, the source gives them in different places.

What was measured:
motoneurons (MNs) [1] = experiment: Rat model of peripheral nerve root avulsion (RA model): MN counts and immunohistochemistry at L4-L5 spinal cord; assay type: in vivo; details: for effect on the neuroprotective effect (MN survival) exerted by C1: RA-injured animals treated with C1 concomitantly
From the text: For in vivo studies, a pre-clinical rat model of peripheral nerve root avulsion (RA model) was generated as previously described (see Penas C Cytoskeletal and activity-related changes in spinal motoneurons after root avulsion. Journal of Neurotrauma, 2009). Briefly, a midline skin incision was made at the level of the iliac crest, the right sciatic nerve was identified and the L4 and L5 spinal nerves were separated. A moderate traction was applied to produce extravertebral nerve root avulsion, leading to a retrograde degeneration of around 80% of the injured MNs within a month. The left roots were kept intact as control sham. We intratechally administered the vehicle (artificial cerebrospinal fluid (aCSF) [NaCl (124 mM), KCl (3 mM), NaHCO3 (26 mM), CaCl2/2H2O (2 mM), MgSO4/7H2O (1 mM), KH2PO4 (1.25 mM) and D-Glucose (10 mM)] or the positive control drug for neuroprotection (PRE084, 1-phenylcyclohexanecarboxylate hydrochloride, 1.7 μg/kg/day), C1 (Acamprosate calcium 96 μg/Kg/day (equivalent to 86.9 μg/Kg/day acamprosate free acid)+Ribavirin 0.48 μg/Kg/day) or acamprosate calcium (96 μg/Kg/day) (equivalent to 86.9 μg/Kg/day acamprosate free acid) alone and ribavirin (0.48 μg/Kg/day) alone. For this purpose, we used a programmable micro-infusion pump system (iPrecio, Primetech) to continuously perfuse the drugs into the animal CSF during 20 days from the following day after RA. […] experimental animal groups with RA were defined: one was treated with C1, another was treated with Pre084 (positive control), another was treated with Acamprosate calcium alone (A), another was treated with Ribavirin alone (B), another was treated with vehicle alone, another was left untreated (control). […] Images from microscope were digitally captured and analyzed using several plugins of the ImageJ Software.

[2] = tested on: NSC-34 motoneuron-like cells; experiment: MTT cell survival assay of NSC-34 motoneuron-like cells under tunicamycin-induced ER stress; assay type: cell-based, mouse; details: for MTT assay (% sample vs control), Mean: concomitant TN 1 μg/mL, 24 h, C1 = 0.11 mM acamprosate calcium + 4 μM ribavirin, single drugs 0.11 mM acamprosate calcium, 4 μM ribavirin, 10 μM PRE084; for Corrected Response (Response less control 62.956%) / Response (% neuronal cell survival after ER stress): tunicamycin, MTT
Procedure: For the in vitro studies, we assessed cell survival of the NSC-34 motoneuron-like cells with a conventional MTT-based assay. NSC-34 is a hybrid cell line produced by fusion of neuroblastoma with mouse motoneuron-enriched primary spinal cord cells, which express properties characteristic of MNs, including the generation of action potentials, the presence of specific neurofilaments and acetylcholine signaling. […] Tunicamycin is a power that was dissolved in DMSO to 10 mg/ml final concentration and then diluted in Dulbeco's modified eagle medium (DMEM) medium at the final working solution indicated in figure legends. The rest of drugs, C1, Acamprosate calcium and Ribavirin were dissolved in water and then in DMEM medium at the final working solutions: 0.11 mM Acamprosate calcium (ACA), 4 μM Ribavirin (RIB) alone or in C1, at a final volume of 100 μI for MTT assays.
We assessed the neuroprotective effect of C1 (acamprosate calcium 0.11 mM+ribavirin 4 μM in 100 μl final volume) when added simultaneous to tunicamycin (TN) in the culture medium. We evaluated cell survival 24 h after the addition of toxin and therapeutic drugs performing an MTT conventional test.
In order to analyze the existence of possible additive neuroprotective effect between drugs, we determined the dose-effect relations of each individual drug (Acamprosate calcium 0.11 mM or Ribavirin 4 μM, both in 100 μI final volume) compared to equivalent doses for C1 (acamprosate calcium 0.11 mM+ribavirin 4 μM in 100 μI final volume).

motoneurons (MNs) [3] = details: cited from earlier work
[4] = acamprosate calcium alone, Dose DA 0.1X (1X = 0.11 mM)
[5] = acamprosate calcium alone, Dose DA 0.2X (1X = 0.11 mM)
[6] = acamprosate calcium alone, Dose DA 0.5X (1X = 0.11 mM)
[7] = acamprosate calcium alone, Dose DA 1X (0.11 mM)
[8] = ribavirin alone, Dose DB 0.1X (1X = 4 μM)
[9] = ribavirin alone, Dose DB 0.2X (1X = 4 μM)
[10] = ribavirin alone, Dose DB 0.5X (1X = 4 μM)
[11] = ribavirin alone, Dose DB 1X (4 μM)

## NC(=O)C1CCCc2c1[nH]c1ccc(Cl)cc21 (centres unmarked) [EX-527, 6-chloro-2,3,4,9-tetrahydro-1H-carbazole-1-carboxamide]
Motoneurons (MNs) [1]
  effect on the neuroprotective effect (MN survival) exerted by C1: abolished the neuroprotective effect

## O=C(OCCN1CCOCC1)C1(c2ccccc2)CCCCC1 [PRE084, 2-(4-Morpholinethyl)1 Phenylcyclohexanecarboxylate]
[2]; NSC-34 cells, TN 1 μg/mL, 10 μM PRE084, MTT
  neuroprotection against TN stress compared with C1: did not neuroprotect the cells as efficiently as C1
[2]; NSC-34 cells
  MTT assay (% sample vs control), Mean: 68.81%
Motoneurons (MNs) [1]; root avulsed rats, intrathecal infusion 20 days, 21 days post-injury, C1 = 96 μg/Kg/day acamprosate calcium + 0.48 μg/Kg/day ribavirin, PRE084 1.7 μg/kg/day
  MN survival compared to the vehicle group: significantly different to the vehicle group
Motoneurons (MNs) [3]; spinal root avulsion (Penas et al. 2011)
  induction of MN survival: 50-60%

## CC(=O)NCCCS(=O)(=O)O [acamprosate calcium, 3-acetamidopropane-1-sulfonic acid]
[2]; NSC-34 cells
  MTT assay (% sample vs control), Mean: 65.80%
[2]; [4]
  Corrected Response (Response less control 62.956%): 3.52%
  Response (% neuronal cell survival after ER stress): 66.475%
[2]; [5]
  Corrected Response (Response less control 62.956%): 2.96%
  Response (% neuronal cell survival after ER stress): 65.918%
[2]; [6]
  Corrected Response (Response less control 62.956%): 3.89%
  Response (% neuronal cell survival after ER stress): 66.849%
[2]; [7]
  Corrected Response (Response less control 62.956%): 2.46%
  Response (% neuronal cell survival after ER stress): 65.417%

## NC(=O)c1ncn([C@@H]2O[C@H](CO)[C@@H](O)[C@H]2O)n1 [ribavirin, 1-[(2R,3R,4S,5R)-3,4-dihydroxy-5-(hydroxymethyl)oxolan-2-yl]-1H-1,2,4-triazole-3-carboxamide]
[2]; NSC-34 cells
  MTT assay (% sample vs control), Mean: 68.07%
[2]; [8]
  Corrected Response (Response less control 62.956%): 5.71%
  Response (% neuronal cell survival after ER stress): 68.662%
[2]; [9]
  Corrected Response (Response less control 62.956%): 7.93%
  Response (% neuronal cell survival after ER stress): 70.886%
[2]; [10]
  Corrected Response (Response less control 62.956%): 2.72%
  Response (% neuronal cell survival after ER stress): 65.676%
[2]; [11]
  Corrected Response (Response less control 62.956%): 5.69%
  Response (% neuronal cell survival after ER stress): 68.647%

## Nc1nc2ccc(OC(F)(F)F)cc2s1 [riluzole]
Motoneurons (MNs) [3]; model of spinal root avulsion with reimplantation
  neuroprotective effect: maximum observed effect of neuroprotection
Motoneurons (MNs) [3]; models of root avulsion without reimplantation (Chew 2014)
  neuroprotective effect: no neuroprotective effect

## NCCCCNCCCN [spermidine]
Motoneurons (MNs) [1]
  effect on the neuroprotective effect (MN survival) exerted by C1: did maintain it
